Measured values reported in ChEMBL document CHEMBL4392881, “Noursamycins, Chlorinated Cyclohexapeptides Identified from Molecular Networking of Streptomyces noursei NTR-SR4” (2019).
Converted amounts (≈) assume the structure as drawn.

Key:
Bacillus subtilis [1] = experiment: Antibacterial activity against Bacillus subtilis JMRC:STI:10880 assessed as diameter of clear inhibition zone by agar diffusion test (reference value: 0 millimeter); type: functional
Staphylococcus aureus [2] = experiment: Antibacterial activity against Staphylococcus aureus JMRC:ST:10760 assessed as diameter of clear inhibition zone by agar diffusion test (reference value: 0 millimeter); type: functional
Staphylococcus aureus [3] = experiment: Antibacterial activity against mulitdrug-resistant Staphylococcus aureus JMRC:ST:33793 assessed as diameter of clear inhibition zone by agar diffusion test (reference value: 0 millimeter); type: functional
Staphylococcus aureus [4] = experiment: Antibacterial activity against mulitdrug-resistant Staphylococcus aureus JMRC:ST:33793 assessed as diameter of colonies in inhibition zone by agar diffusion test (reference value: 0 millimeter); type: functional
Escherichia coli [5] = experiment: Antibacterial activity against Escherichia coli JMRC:ST:33699 assessed as diameter of clear inhibition zone by agar diffusion test (reference value: 0 millimeter); type: functional
Pseudomonas aeruginosa [6] = experiment: Antibacterial activity against Pseudomonas aeruginosa JMRC:ST:33772 assessed as diameter of clear inhibition zone by agar diffusion test (reference value: 0 millimeter); type: functional
Pseudomonas aeruginosa [7] = experiment: Antibacterial activity against Pseudomonas aeruginosa JMRC:ST:337721 assessed as diameter of clear inhibition zone by agar diffusion test (reference value: 0 millimeter); type: functional
Enterococcus faecalis = experiment: Antibacterial activity against vancomycin-resistant Enterococcus faecalis JMRC:ST:33700 assessed as diameter of promotion of inhibition zone by agar diffusion test (reference value: 0 millimeter); type: functional
Mycolicibacterium vaccae [8] = experiment: Antibacterial activity against Mycobacterium vaccae JMRC:STI:10670 assessed as diameter of clear inhibition zone by agar diffusion test (reference value: 0 millimeter); type: functional
[9] = system: Sporobolomyces salmonicolor; experiment: Antifungal activity against Sporobolomyces salmonicolor JMRC:ST:35974 assessed as diameter of colonies in inhibition zone by agar diffusion test (reference value: 10 millimeter); type: functional
Candida albicans = experiment: Antifungal activity against Candida albicans JMRC:STI:25000 assessed as diameter of clear inhibition zone by agar diffusion test (reference value: 0 millimeter); type: functional
Penicillium chrysogenum [10] = experiment: Antifungal activity against Penicillium notatum JMRC:STI:50164 assessed as diameter of clear inhibition zone by agar diffusion test (reference value: 10 millimeter); type: functional
Bacillus subtilis [11] = experiment: Antibacterial activity against Bacillus subtilis DSM10 measured after 20 hrs; type: functional; conditions: DSM10, 20 h
Escherichia coli [12] = experiment: Antibacterial activity against Escherichia coli DSM 1116 measured after 20 hrs; type: functional; conditions: DSM 1116, 20 h
Escherichia coli [13] = experiment: Antibacterial activity against Escherichia coli BW25113 measured after 20 hrs; type: functional; conditions: BW25113, 20 h
Salmonella typhimurium = experiment: Antibacterial activity against Salmonella typhimurium TA100 measured after 20 hrs; type: functional, Salmonella enterica subsp. enterica serovar Typhimurium; conditions: Salmonella enterica, TA100, 20 h
Micrococcus luteus = experiment: Antibacterial activity against Micrococcus luteus DSM 1790 measured after 20 hrs; type: functional; conditions: DSM 1790, 20 h
Mycolicibacterium phlei = experiment: Antibacterial activity against Mycobacterium phlei DSM 750 measured after 20 hrs; type: functional; conditions: DSM 750, 20 h
Mycolicibacterium vaccae [14] = experiment: Antibacterial activity against Mycobacterium vaccae JMRC:STI:10670 assessed as diameter of colonies in inhibition zone by agar diffusion test (reference value: 0 millimeter); type: functional
Penicillium chrysogenum [15] = experiment: Antifungal activity against Penicillium notatum JMRC:STI:50164 assessed as diameter of colonies in inhibition zone by agar diffusion test (reference value: 10 millimeter); type: functional

CC[C@@H](C)[C@@H]1NC(=O)[C@@H](CC(C)C)NC(=O)[C@@H](C(C)C)NC(=O)[C@H](Cc2c[nH]c3ccc(Cl)cc23)NC(=O)[C@@H]([C@H](O)C(N)=O)NC(=O)[C@H](CCCN)NC1=O
diameter of the inhibition zone (DIZ) (Bacillus subtilis [1]): 16 mm | diameter of the inhibition zone (DIZ) (Staphylococcus aureus [2]): 18 mm | diameter of the inhibition zone (DIZ) (Staphylococcus aureus [3]): 13 mm | diameter of the inhibition zone (DIZ) (Staphylococcus aureus [4]): 15 mm | diameter of the inhibition zone (DIZ) (Escherichia coli [5]): 0 mm | diameter of the inhibition zone (DIZ) (Pseudomonas aeruginosa [6]): 0 mm | diameter of the inhibition zone (DIZ) (Pseudomonas aeruginosa [7]): 10 mm | diameter of the inhibition zone (DIZ) (Enterococcus faecalis): 16 mm | diameter of the inhibition zone (DIZ) (Mycolicibacterium vaccae [8]): 22 mm | diameter of the inhibition zone (DIZ) [9]: 12 mm | diameter of the inhibition zone (DIZ) (Candida albicans): 0 mm | diameter of the inhibition zone (DIZ) (Penicillium chrysogenum [10]): 0 mm | MIC (Bacillus subtilis [11]): 32 µg/mL (≈ 40.5 µM) | MIC (Escherichia coli [12]): ≥ 64 µg/mL | MIC (Escherichia coli [13]): ≥ 64 µg/mL | MIC (Salmonella typhimurium): 32 µg/mL (≈ 40.5 µM) | MIC (Micrococcus luteus): 32 µg/mL (≈ 40.5 µM) | MIC (Mycolicibacterium phlei): 32 µg/mL (≈ 40.5 µM)

CC[C@@H](C)[C@@H]1NC(=O)[C@@H](Cc2ccccc2)NC(=O)[C@@H](C(C)C)NC(=O)[C@H](Cc2c[nH]c3ccc(Cl)cc23)NC(=O)[C@@H]([C@H](O)C(N)=O)NC(=O)[C@H](CCCN)NC1=O
diameter of the inhibition zone (DIZ) (Bacillus subtilis [1]): 18 mm | diameter of the inhibition zone (DIZ) (Staphylococcus aureus [2]): 21 mm | diameter of the inhibition zone (DIZ) (Staphylococcus aureus [3]): 18 mm | diameter of the inhibition zone (DIZ) (Escherichia coli [5]): 10 mm | diameter of the inhibition zone (DIZ) (Pseudomonas aeruginosa [6]): 0 mm | diameter of the inhibition zone (DIZ) (Pseudomonas aeruginosa [7]): 10 mm | diameter of the inhibition zone (DIZ) (Enterococcus faecalis): 18 mm | diameter of the inhibition zone (DIZ) (Mycolicibacterium vaccae [8]): 21 mm | diameter of the inhibition zone (DIZ) (Mycolicibacterium vaccae [14]): 26 mm | diameter of the inhibition zone (DIZ) [9]: 12 mm | diameter of the inhibition zone (DIZ) (Candida albicans): 0 mm | diameter of the inhibition zone (DIZ) (Penicillium chrysogenum [10]): 0 mm | MIC (Bacillus subtilis [11]): 4 µg/mL (≈ 4.85 µM) | MIC (Escherichia coli [12]): ≥ 64 µg/mL | MIC (Escherichia coli [13]): ≥ 64 µg/mL | MIC (Salmonella typhimurium): 16 µg/mL (≈ 19.4 µM) | MIC (Micrococcus luteus): 8 µg/mL (≈ 9.7 µM) | MIC (Mycolicibacterium phlei): 8 µg/mL (≈ 9.7 µM)

C[C@@H]1[C@H](O)[C@@H](C)/C=C/C=C/C=C/C=C/C=C/C=C/C=C/[C@H](O[C@@H]2O[C@H](C)[C@@H](O)[C@H](N)[C@@H]2O)C[C@@H]2O[C@](O)(C[C@@H](O)C[C@@H](O)[C@H](O)CC[C@@H](O)C[C@@H](O)CC(=O)O[C@H]1C)C[C@H](O)[C@H]2C(=O)O [AMPHOTERICIN B]
diameter of the inhibition zone (DIZ) [9]: 18 mm | diameter of the inhibition zone (DIZ) (Candida albicans): 20 mm | diameter of the inhibition zone (DIZ) (Penicillium chrysogenum [15]): 19 mm

O=C(O)c1cn(C2CC2)c2cc(N3CCNCC3)c(F)cc2c1=O [CIPROFLOXACIN]
diameter of the inhibition zone (DIZ) (Enterococcus faecalis): 17 mm | diameter of the inhibition zone (DIZ) (Mycolicibacterium vaccae [14]): 21 mm | MIC (Bacillus subtilis [11]): < 0.25 µg/mL | MIC (Escherichia coli [12]): < 0.25 µg/mL | MIC (Escherichia coli [13]): < 0.25 µg/mL | MIC (Salmonella typhimurium): < 0.25 µg/mL | MIC (Micrococcus luteus): < 0.25 µg/mL | MIC (Mycolicibacterium phlei): < 0.25 µg/mL
